From patent publication US9447156B2, “Methods and compositions for inhibiting neddylation of proteins” (St. Jude Children's Research Hospital, priority 2011, dated 2016)

Experiments:
hDcn1^P = molecular target: T1, hDcn1^P (Homo sapiens, UniProt Q96GG9); assay: ITC binding of Ubc12/Ube2f peptides to hDcn1^P; details: Table 29, peptides with amidated carboxy-terminus, read-out: Binding Kd for hDcn1^P
T1 construct: hDcn1^P corresponds to residues 62 to the C-terminal residue 259 of hDcn1; GST (cleaved yes); made in house; host or cells: E. coli BL21(DE3)Gold
T1 sequence (Q96GG9 62-259): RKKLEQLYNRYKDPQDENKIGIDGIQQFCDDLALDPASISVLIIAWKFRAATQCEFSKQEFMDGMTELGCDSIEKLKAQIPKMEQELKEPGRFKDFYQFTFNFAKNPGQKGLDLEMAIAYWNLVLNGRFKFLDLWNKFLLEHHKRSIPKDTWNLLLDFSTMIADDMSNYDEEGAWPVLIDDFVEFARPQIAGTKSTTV
Method: (§1) Protein samples were buffer matched by desalting over a NAP-5 column (GE Healthcare) into 50 mM Hepes, 125 mM NaCl, 1 mM BME, pH 7.0 (ITC buffer). Peptides were dissolved by weight to a final concentration of 10 mM in ITC buffer and diluted further in ITC buffer as required for the experiments. Measurements were performed using a MicroCal ITC200. hDcn1^P or yDcn1^P were placed into the sample cell at a final concentration of 400 μM at 18° C. The peptide ligands (4 mM) were constantly injected (1.5 μl). The interval time between each injection was 3 minutes and the duration of each injection was 3 seconds. For titrations involving hE1 and yE1, proteins were placed into the sample cell at a final concentration of 25 μM at 22° C. Peptide ligands (250 μM) were constantly injected (2.5 μl). The interval time between each injection was three minutes and the duration of each injection was 5 seconds. For hCul1^ctd-Rbx1:hDcn1^P binding, proteins were buffer matched by desalting over a NAP-5 column in 25 mM Tris, 0.1 M NaCl, 1 mM BME, pH 7.6. hCul1^ctd-Rbx1 was placed into the sample cell at a final concentration of 55 μM at 22° C. hDcn1^P (550 μM) was constantly injected (2.5 μl). The interval time between each injection was 3 minutes and the duration of each injection was 5 seconds. Obtained spectra were evaluated using Origin (V 7.0) to determine heats of binding and Kd values.
(§2) The affinity of various peptides for hDcn1^P, hDcn2^P, hDcn3^P, hDcn4^P, and hDcn5^P was tested using isothermal titration calorimetry as described in Example 1 and is provided in Table 29.

hDcn4^P = molecular target: T2, hDcn4^P (Homo sapiens, UniProt Q92564); assay: ITC binding of peptides to hDcn4^P; details: Table 29, peptides with amidated carboxy-terminus
T2 sequence (Q92564 102-292): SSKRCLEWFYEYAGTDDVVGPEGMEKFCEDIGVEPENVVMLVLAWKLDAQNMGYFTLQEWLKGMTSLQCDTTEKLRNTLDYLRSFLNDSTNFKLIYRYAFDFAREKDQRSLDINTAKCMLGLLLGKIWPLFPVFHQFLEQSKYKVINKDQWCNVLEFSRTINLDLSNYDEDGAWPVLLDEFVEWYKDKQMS
Method: as §1, with “values. […]” for “values.”

hDcn2^P = molecular target: T3, hDcn2^P (Homo sapiens, UniProt Q6PH85); assay: ITC binding of peptides to hDcn2^P; details: Table 29, peptides with amidated carboxy-terminus
T3 construct: human Dcn1 family members 1-5 (also called DCUND1-DCUND5)
T3 sequence (Q6PH85 62-259): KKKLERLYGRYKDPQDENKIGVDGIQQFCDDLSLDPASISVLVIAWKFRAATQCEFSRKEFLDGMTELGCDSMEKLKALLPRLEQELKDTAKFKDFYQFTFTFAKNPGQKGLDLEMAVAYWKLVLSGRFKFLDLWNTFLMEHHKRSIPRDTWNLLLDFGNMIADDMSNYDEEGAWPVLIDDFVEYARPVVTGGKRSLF
Method: as §1, §2

hDcn5^P = molecular target: T4, hDcn5^P (Homo sapiens, UniProt Q9BTE7); assay: ITC binding of peptides to hDcn5^P; details: Table 29, peptides with amidated carboxy-terminus
T4 construct: human Dcn1 family members 1-5 (also called DCUND1-DCUND5)
T4 sequence (Q9BTE7 47-237): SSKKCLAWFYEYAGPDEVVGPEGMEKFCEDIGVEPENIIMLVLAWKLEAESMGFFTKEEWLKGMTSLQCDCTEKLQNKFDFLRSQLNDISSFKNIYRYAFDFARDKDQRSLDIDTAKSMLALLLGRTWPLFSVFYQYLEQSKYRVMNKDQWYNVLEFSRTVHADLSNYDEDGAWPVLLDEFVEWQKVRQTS
Method: as §1, with “values. […]” for “values.”

hCul1^ctd-hRbx1 [1] = assay: ITC hDcn1^P binding to hCul1^ctd-hRbx1; details: human versus yeast Kd
Method: as §1

hCul1^ctd-hRbx1 [2] = assay: Pulse-chase assay of [32P]~hNedd8 transfer from hUbc12 to hCul1-hRbx1 with or without hDcn1^P; format: biochemical, human; details: FIG. 3
Method: Dcn1^P-mediated co-E3 activity was monitored using pulse-chase assays to exclusively monitor effects of acetylation on Nedd8 transfer to Cul1 without sensing earlier steps in the reaction. For the “pulse”, 10 μM of the indicated versions of yUbc12 were charged with [^32P]-yNedd8 (also referred to as [^32P]-Rub1) as described previously (Scott et al. (2010) Mol Cell 39(5):784-796), resulting in formation of a thiolester-linked yUbc12-[^32P]-yNedd8 intermediate. 10 μM of the indicated versions of hUbc12 were charged similarly with [^32P]-hNedd8, for 15 minutes at room temperature using 0.1 μM hE1, 15 μM [^32P]-hNedd8, in 50 mM Hepes, 100 mM NaCl, 1.25 mM ATP, 2.5 mM MgCl2, pH 7.5. Formation of a yUbc12-[^32P]-yNedd8 or hUbc12-[^32P]-hNedd8 intermediate was quenched with 50 mM EDTA on ice for 5 minutes. Other than in FIG. 3, where additional details are provided, chase reactions with hUbc12 and yUbc12 variants involved dilution of the Ubc12-[^32P]-Nedd8 thioester conjugate to 40 nM in 50 mM BisTris, 100 mM NaCl, 50 mM EDTA, 0.5 mg/ml BSA, pH 6.7. Chase reactions were initiated at 0° C. by the addition of hCul1^ctd-hRbx1, yCul1^C+-yRbx1, hDcn1^P-hCul1^ctd-hRbx1, or yDcn1^P-yCul1^C+-yRbx1 at a final concentration of 125 nM. Aliquots were removed at the indicated times and quenched with 2×SDS-PAGE sample buffer. […]

yCul1^C+-yRbx1 = details: yeast counterparts; read-out: Kd yCul1^C+-yRbx1:yDcn1^P; cited from earlier work
Sequence of yCul1^C+-yRbx1 (Q12018 427-815 limits assumed): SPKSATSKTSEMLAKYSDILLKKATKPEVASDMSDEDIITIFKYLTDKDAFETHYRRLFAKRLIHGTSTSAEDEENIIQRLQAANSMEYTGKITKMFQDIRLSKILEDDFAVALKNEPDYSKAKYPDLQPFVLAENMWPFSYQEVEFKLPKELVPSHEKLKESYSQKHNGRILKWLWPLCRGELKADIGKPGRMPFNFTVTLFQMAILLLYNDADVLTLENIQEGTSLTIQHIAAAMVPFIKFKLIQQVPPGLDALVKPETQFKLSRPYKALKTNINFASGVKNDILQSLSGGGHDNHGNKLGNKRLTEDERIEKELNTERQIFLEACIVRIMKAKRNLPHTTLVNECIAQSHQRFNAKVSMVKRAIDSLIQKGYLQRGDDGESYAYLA
Sequence of yCul1^C+-yRbx1 (Q08273 32-121 limits assumed, further chain): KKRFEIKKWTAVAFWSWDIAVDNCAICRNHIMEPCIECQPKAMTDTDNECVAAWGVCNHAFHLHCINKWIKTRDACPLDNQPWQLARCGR

Question: For “Ac-MLTLASKLKRDDGLKGSRTAATASD-NH2 [hUbe2f^Ac1−25]”, which Kd (hDcn1^P) is on record?
Answer: > 500 µM

Question: And the Kd (hDcn4^P)?
Answer: > 40 µM

Question: What about the Kd (hDcn2^P) of the same molecule?
Answer: > 400 µM

Question: What about the Kd (hDcn5^P) of the same molecule?
Answer: > 30 µM

Question: Which “Kd of human proteins relative to yeast counterparts (fold worse)” value (hCul1^ctd-hRbx1 [1]) does the source give for “hDcn1^P: residues 62 to 259 of hDcn1 (SCCRO, DCUN1D1), the potentiating neddylation domain” here?
Answer: approximately 30 fold

B1: CAND1: protein inhibitor of Cul1 neddylation, expressed in E. coli (protein, UniProt Q86VP6 2-1230, looked up)
Cullin-associated …: ASASYHISNLLEKMTSSDKDFRFMATNDLMTELQKDSIKLDDDSERKVVKMILKLLEDKNGEVQNLAVKCLGPLVSKVKEYQVETIVDTLCTNMLSDKEQLRDISSIGLKTVIGELPPASSGSALAANVCKKITGRLTSAIAKQEDVSVQLEALDIMADMLSRQGGLLVNFHPSILTCLLPQLTSPRLAVRKRTIIALGHLVMSCGNIVFVDLIEHLLSELSKNDSMSTTRTYIQCIAAISRQAGHRIGEYLEKIIPLVVKFCNVDDDELREYCIQAFESFVRRCPKEVYPHVSTIINICLKYLTYDPNYNYDDEDEDENAMDADGGDDDDQGSDDEYSDDDDMSWKVRRAAAKCLDAVVSTRHEMLPEFYKTVSPALISRFKEREENVKADVFHAYLSLLKQTRPVQSWLCDPDAMEQGETPLTMLQSQVPNIVKALHKQMKEKSVKTRQCCFNMLTELVNVLPGALTQHIPVLVPGIIFSLNDKSSSSNLKIDALSCLYVILCNHSPQVFHPHVQALVPPVVACVGDPFYKITSEALLVTQQLVKVIRPLDQPSSFDATPYIKDLFTCTIKRLKAADIDQEVKERAISCMGQIICNLGDNLGSDLPNTLQIFLERLKNEITRLTTVKALTLIAGSPLKIDLRPVLGEGVPILASFLRKNQRALKLGTLSALDILIKNYSDSLTAAMIDAVLDELPPLISESDMHVSQMAISFLTTLAKVYPSSLSKISGSILNELIGLVRSPLLQGGALSAMLDFFQALVVTGTNNLGYMDLLRMLTGPVYSQSTALTHKQSYYSIAKCVAALTRACPKEGPAVVGQFIQDVKNSRSTDSIRLLALLSLGEVGHHIDLSGQLELKSVILEAFSSPSEEVKSAASYALGSISVGNLPEYLPFVLQEITSQPKRQYLLLHSLKEIISSASVVGLKPYVENIWALLLKHCECAEEGTRNVVAECLGKLTLIDPETLLPRLKGYLISGSSYARSSVVTAVKFTISDHPQPIDPLLKNCIGDFLKTLEDPDLNVRRVALVTFNSAAHNKPSLIRDLLDTVLPHLYNETKVRKELIREVEMGPFKHTVDDGLDIRKAAFECMYTLLDSCLDRLDIFEFLNHVEDGLKDHYDIKMLTFLMLVRLSTLCPSAVLQRLDRLVEPLRATCTTKVKANSVKQEFEKQDELKRSAMRAVAALLTIPEAEKSPLMSEFQSQISSNPELAAIFESIQKDSSSTNLESMDTS
Question: With B1 as the molecule, how does the “Cul1 neddylation in the presence of Dcn1^P and Ubc12 N-terminal acetylation” value (hCul1^ctd-hRbx1 [2]) read?
Answer: blocked

B2: yDcn1^P: PONY domain of S. cerevisiae Dcn1 (protein)
chain: VYPKELTQVFEHYINNNLFDIDSLVKFIEELGYNLEDLATLCLAHLLGYKKLEEPLKREDFLSTWFMQGCSTISDMQECIKTLDVKLHEDLQYFTQIYNYAFNLILDPNRKDIDTDEGIQYWKLFFQPEYPVRMEPDLLEAWFRFLRDEGKTTISKDTWRMLLLFFKRYPTIQKIISDYDETAAWPFIIDEFYECLQDQQ
Question: Which Kd (yCul1^C+-yRbx1) does the source give for B2 here?
Answer: 0.028 µM
